Test results taken from PMC11369877 (Therapeutic Advances in Medical Oncology, 2024).

Tests used:
[1] = tested on: Asian patients; conditions: palbociclib plus letrozole, PALOMA-4 trial; cited from earlier work
[2] = human, in vivo

SMILES | neutropenia, grade 3 [1] [%] | neutropenia, grade 4 [1] [%] | geometric mean Rac,AUC [2]
CC(=O)c1c(C)c2cnc(Nc3ccc(N4CCNCC4)cn3)nc2n(C2CCCC2)c1=O [palbociclib] | 72 | 12.5 | –
N#Cc1ccc(C(c2ccc(C#N)cc2)n2cncn2)cc1 [letrozole] | – | – | 6.25–6.41
CC(C)(C#N)c1cc(Cn2cncn2)cc(C(C)(C)C#N)c1 [anastrozole] | – | – | 3.66–4.15
